Columns and labels:
Type in all cases: cell-based
Conditions in all cases: MM1 S cells, 0.3, 3 and 30 μM, 6 hours
IKZF1 = biological target: T1, IKZF1 (Homo sapiens, UniProt Q13422+Q96SW2); assay: Selectivity western blot assay in MM1 S cells, IKZF1; parameters: key: A represents no degradation observed at 30 μM; B represents trace degradation at 30 μM (below 20%); C represents weak degradation at 30 μM (below 50%); D represents degradation at 30 μM (>90%); E represents degradation at 3 μM (>90%); F represents degradation at 0.3 μM (>90%)
T1 construct: endogenous in cells; host or cells: MM1 S (ATCC CRL-2974)
Method: (§1) MM1 S cells were purchased from ATCC (cat. Number CRL-2974), sub-cultured in 90% RPMI 1640 with 10% FBS, supplemented with 1×P/S and incubated at 37° C., 5% CO2. Compounds were stored as 10 mM DMSO stock. For the assay, MM1 S cells (3 million cells/well) were plated in 6-well plates and incubated over night. Cells were treated with respective compounds using a serial dilution: 0.3 μM, 3 μM and 30 μM as well as a vehicle only (DMSO) control for 6 hours. Media with suspension cells was subsequently transferred to 15 mL conical tubes, wells rinsed twice with ice-cold PBS and merged with cell suspension in respective 15 mL conical tube. Cells were spinned down, supernatant aspirated, pellets resuspended in ice-cold PBS and transferred to microtubes. Cells were spinned down, supernatant aspirated and pellets resuspended in 120 μL RIPA lysis buffer supplemented with protease and phosphatase inhibitors. Cell lysates were incubated on ice for 20 minutes followed by centrifugation at >20,000×g for 5 min. Supernatants were transferred to fresh microtubes and stored at −80° C. Total protein concentration was determined using a BCA assay with a BSA standard curve and concentration of all samples was adjusted to 1 mg/mL. 25 μL 4×LDS sample buffer supplemented with 100 mM DTT was added to 75 μL sample. Samples were centrifuged (8,000×g, 1 min) and incubated at 95° C. for 5 min followed by another centrifugation step (8,000×g, 1 min). 20 μL of each sample was loaded on a 4-12% gel alongside a protein molecular weight marker. Gels were run in the presence of MOPS buffer at 80 Volts for 30 min, followed by 120 Volts for 1.5 h and proteins subsequently transferred onto nitrocellulose membranes at 20 Volts for 7 min using an iBlot2 Gel Transfer Device. Membranes were then cut horizontally into two pieces, covering 80-50 kDa and 50-25 kDa. Blocking the membranes was performed by gently shaking in 5% (w/v) skim milk in TSB-T for 1 hr at room temperature. All primary antibodies were used at a 1/1000 in 5% (w/v) BSA dissolved in TBST and incubated with membranes over night at 4° C. After three washes with 1×TBST for 5 min, HRP-coupled secondary antibodies diluted in 5% (w/v) BSA/TBST (Goat Anti-Rb IgG, dil. 1/10,000; Goat Anti-Mouse IgG, dil. 1/5000) were added for 1 hr at room temperature. After three washes with 1×TBST (5 minutes each), membranes were incubated with ECL reagent for 1 min at room temperature. Chemiluminescence signals were then detected using a LAS-4000 system with default settings and signals quantified using Image Studio Lite software (version 5.2). Membrane parts previously incubated with antibody against CK1 alpha were stripped off antibodies by incubating with stripping buffer for 30 minutes followed by three washed with TBST (5 min each), blocking with 5% (w/v) skim milk for 1 hr, and incubation with primary antibody against uGAPDH overnight at 4° C. Subsequent washes, incubation with secondary antibody and signal acquisition were performed as described above.

GSPT1 = GSPT1 (Homo sapiens, UniProt P15170+Q96SW2); assay: Selectivity western blot assay in MM1 S cells, GSPT1; parameters: endogenous in cells; host or cells: MM1 S (ATCC CRL-2974)
Method: as §1

IKZF3 = biological target: T2, IKZF3 (Homo sapiens, UniProt Q96SW2+Q9UKT9); assay: Selectivity western blot assay in MM1 S cells, IKZF3
T2 construct: endogenous in cells; host or cells: MM1 S (ATCC CRL-2974)
Method: as §1

CK1alpha = biological target: T3, CK1alpha (Homo sapiens, UniProt P48729+Q96SW2); assay: Selectivity western blot assay in MM1 S cells, CK1alpha; parameters: key: A represents no degradation observed at 30 μM; B represents trace degradation at 30 μM (below 20%); C represents weak degradation at 30 μM (below 50%); D represents degradation at 30 μM (>90%); E represents degradation at 3 μM (>90%); F represents degradation at 0.3 μM (>90%)
T3 construct: endogenous in cells; host or cells: MM1 S (ATCC CRL-2974)
Method: as §1

ZFP91 = biological target: T4, ZFP91 (Homo sapiens, UniProt Q96JP5+Q96SW2); assay: Selectivity western blot assay in MM1 S cells, ZFP91; parameters: key: A represents no degradation observed at 30 μM; B represents trace degradation at 30 μM (below 20%); C represents weak degradation at 30 μM (below 50%); D represents degradation at 30 μM (>90%); E represents degradation at 3 μM (>90%); F represents degradation at 0.3 μM (>90%)
T4 construct: endogenous in cells; host or cells: MM1 S (ATCC CRL-2974)
Method: as §1

T3 sequence (P48729 whole entry): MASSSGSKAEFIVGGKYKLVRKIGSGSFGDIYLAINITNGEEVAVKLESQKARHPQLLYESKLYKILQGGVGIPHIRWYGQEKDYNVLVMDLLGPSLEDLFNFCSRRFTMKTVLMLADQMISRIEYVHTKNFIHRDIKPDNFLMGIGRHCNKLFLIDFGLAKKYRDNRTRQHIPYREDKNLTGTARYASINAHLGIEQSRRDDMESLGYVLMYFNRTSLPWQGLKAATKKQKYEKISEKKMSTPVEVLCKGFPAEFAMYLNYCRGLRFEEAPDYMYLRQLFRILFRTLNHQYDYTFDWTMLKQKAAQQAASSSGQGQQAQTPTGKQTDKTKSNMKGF
T3 sequence (Q96SW2 whole entry): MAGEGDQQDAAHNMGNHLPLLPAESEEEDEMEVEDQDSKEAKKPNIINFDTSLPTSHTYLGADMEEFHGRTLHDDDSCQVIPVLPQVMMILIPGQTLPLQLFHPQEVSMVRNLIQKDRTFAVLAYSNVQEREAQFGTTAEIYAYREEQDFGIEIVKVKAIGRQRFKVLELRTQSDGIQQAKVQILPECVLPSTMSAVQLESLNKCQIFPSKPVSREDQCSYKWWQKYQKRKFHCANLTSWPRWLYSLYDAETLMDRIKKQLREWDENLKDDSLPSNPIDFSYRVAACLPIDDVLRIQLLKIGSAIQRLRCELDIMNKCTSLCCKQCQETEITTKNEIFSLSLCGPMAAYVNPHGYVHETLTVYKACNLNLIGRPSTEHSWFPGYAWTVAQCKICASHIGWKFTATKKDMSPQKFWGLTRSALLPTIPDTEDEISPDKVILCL
T3 sequence (Q16531 whole entry partner): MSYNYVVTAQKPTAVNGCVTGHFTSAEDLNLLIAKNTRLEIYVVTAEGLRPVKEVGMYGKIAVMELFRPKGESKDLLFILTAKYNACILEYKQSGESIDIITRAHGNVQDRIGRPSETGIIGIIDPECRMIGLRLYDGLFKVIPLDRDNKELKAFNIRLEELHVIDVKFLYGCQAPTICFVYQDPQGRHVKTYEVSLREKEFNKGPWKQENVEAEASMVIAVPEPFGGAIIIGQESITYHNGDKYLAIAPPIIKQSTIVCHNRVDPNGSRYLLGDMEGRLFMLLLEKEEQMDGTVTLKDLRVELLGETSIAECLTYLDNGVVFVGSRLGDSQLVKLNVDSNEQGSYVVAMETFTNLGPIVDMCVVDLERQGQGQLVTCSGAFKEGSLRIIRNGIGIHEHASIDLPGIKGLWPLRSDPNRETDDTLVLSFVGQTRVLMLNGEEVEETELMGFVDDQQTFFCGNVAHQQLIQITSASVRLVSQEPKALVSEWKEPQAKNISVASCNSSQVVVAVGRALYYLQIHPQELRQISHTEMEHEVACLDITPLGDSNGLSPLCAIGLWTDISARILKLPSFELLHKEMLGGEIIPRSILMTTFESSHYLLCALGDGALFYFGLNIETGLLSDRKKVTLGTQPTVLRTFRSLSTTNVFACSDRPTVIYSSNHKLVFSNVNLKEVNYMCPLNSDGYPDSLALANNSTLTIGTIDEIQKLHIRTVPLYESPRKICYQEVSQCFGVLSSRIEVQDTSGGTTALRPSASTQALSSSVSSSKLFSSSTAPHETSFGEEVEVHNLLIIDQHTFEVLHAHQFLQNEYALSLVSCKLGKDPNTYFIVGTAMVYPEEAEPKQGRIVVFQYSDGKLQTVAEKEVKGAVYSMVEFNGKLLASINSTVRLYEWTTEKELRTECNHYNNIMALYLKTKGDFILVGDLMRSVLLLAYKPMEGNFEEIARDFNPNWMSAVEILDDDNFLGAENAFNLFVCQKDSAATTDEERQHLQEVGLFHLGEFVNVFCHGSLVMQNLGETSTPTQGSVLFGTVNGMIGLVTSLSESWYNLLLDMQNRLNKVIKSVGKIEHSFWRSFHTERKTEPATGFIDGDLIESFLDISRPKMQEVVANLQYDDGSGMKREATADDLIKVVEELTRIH
T1 sequence (Q13422 whole entry): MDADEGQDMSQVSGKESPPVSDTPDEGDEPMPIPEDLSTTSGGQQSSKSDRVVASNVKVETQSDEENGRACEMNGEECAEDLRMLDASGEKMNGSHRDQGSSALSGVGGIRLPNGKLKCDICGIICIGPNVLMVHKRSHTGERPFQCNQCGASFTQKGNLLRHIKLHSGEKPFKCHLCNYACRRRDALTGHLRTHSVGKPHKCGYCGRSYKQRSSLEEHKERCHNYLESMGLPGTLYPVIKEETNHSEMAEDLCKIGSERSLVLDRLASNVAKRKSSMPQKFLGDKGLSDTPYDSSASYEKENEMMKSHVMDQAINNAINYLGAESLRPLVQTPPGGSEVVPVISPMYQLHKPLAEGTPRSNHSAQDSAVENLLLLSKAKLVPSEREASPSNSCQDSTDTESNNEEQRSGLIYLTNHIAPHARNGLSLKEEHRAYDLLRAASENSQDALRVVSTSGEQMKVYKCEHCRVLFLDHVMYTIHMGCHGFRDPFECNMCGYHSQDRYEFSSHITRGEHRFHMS
T1 sequence (Q96SW2 whole entry): as the sequence (Q96SW2 whole entry) above
T1 sequence (Q16531 whole entry partner): as the sequence (Q16531 whole entry partner) above
Sequence of GSPT1 (P15170 whole entry): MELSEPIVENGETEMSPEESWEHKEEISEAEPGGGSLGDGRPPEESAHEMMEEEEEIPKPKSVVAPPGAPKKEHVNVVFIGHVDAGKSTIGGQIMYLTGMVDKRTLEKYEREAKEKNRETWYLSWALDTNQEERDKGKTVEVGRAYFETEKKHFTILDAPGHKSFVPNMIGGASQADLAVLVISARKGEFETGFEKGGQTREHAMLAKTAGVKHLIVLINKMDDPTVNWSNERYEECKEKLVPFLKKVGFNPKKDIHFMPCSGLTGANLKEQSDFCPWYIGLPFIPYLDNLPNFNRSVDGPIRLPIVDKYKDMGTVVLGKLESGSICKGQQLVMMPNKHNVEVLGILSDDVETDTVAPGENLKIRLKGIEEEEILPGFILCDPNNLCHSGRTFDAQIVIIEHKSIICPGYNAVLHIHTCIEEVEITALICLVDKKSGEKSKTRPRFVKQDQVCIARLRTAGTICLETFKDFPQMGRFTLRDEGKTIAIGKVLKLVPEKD
Sequence of GSPT1 (Q96SW2 whole entry): as the sequence (Q96SW2 whole entry) above
Sequence of GSPT1 (Q16531 whole entry partner): as the sequence (Q16531 whole entry partner) above
T2 sequence (Q9UKT9 whole entry): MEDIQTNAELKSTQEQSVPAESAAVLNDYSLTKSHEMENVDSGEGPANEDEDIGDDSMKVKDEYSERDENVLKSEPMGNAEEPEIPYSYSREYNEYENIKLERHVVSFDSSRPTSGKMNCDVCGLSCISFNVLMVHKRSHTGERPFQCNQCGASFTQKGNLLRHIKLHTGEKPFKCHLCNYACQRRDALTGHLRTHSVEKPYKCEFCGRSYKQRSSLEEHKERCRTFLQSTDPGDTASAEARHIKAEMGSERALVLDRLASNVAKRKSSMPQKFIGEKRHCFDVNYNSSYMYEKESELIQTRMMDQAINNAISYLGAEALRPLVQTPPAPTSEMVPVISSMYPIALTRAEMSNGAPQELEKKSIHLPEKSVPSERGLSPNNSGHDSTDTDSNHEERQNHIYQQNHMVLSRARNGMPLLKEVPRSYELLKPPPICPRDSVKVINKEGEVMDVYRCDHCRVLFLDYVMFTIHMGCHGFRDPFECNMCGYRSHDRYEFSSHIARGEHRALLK
T2 sequence (Q96SW2 whole entry): as the sequence (Q96SW2 whole entry) above
T2 sequence (Q16531 whole entry partner): as the sequence (Q16531 whole entry partner) above
T4 sequence (Q96JP5 whole entry): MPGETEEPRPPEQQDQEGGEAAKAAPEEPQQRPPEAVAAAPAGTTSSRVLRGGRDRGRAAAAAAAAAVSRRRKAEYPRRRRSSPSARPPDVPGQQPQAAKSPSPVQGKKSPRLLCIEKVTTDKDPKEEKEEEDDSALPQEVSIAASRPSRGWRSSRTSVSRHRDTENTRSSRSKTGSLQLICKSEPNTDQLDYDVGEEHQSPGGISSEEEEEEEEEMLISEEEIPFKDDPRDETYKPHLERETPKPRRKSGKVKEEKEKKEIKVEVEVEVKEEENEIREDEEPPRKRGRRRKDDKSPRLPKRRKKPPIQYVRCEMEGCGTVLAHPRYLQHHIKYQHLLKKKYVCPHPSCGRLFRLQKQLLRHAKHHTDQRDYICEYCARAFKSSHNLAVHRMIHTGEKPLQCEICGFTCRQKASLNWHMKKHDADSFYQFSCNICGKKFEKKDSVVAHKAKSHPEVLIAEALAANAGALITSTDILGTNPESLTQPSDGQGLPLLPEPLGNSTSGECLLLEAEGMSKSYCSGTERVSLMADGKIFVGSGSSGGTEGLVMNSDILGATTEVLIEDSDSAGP
T4 sequence (Q96SW2 whole entry): as the sequence (Q96SW2 whole entry) above
T4 sequence (Q16531 whole entry partner): as the sequence (Q16531 whole entry partner) above

| Structure (SMILES) | IKZF1 degradation (IKZF1) | GSPT1 degradation (GSPT1) | IKZF3 degradation (IKZF3) | CK1alpha degradation (CK1alpha) | ZFP91 degradation (ZFP91) |
| --- | --- | --- | --- | --- | --- |
| Cc1ccc(NC(=O)OCc2ccc3c(c2)C(=O)N(C2CCC(=O)NC2=O)C3)cc1Cl (centres unmarked) [Compound 210] | A | D (D represents degradation at 30 μM (>90%)) | B (B represents trace degradation at 30 μM (below 20%)) | B (B represents trace degradation at 30 μM (below 20%)) |  |
| Cc1c(Cl)cc(NC(=O)NCc2ccc3c(c2)C(=O)N(C2CCC(=O)NC2=O)C3)cc1CN1C2CCC1COC2 (centres unmarked) [Compound 138] | C (C represents weak degradation at 30 μM (below 50%)) | F (F represents degradation at 0.3 μM (>90%)) | B (B represents trace degradation at 30 μM (below 20%)) | A | A |
| Cc1ccc(NC(=O)NCc2ccc3c(c2)C(=O)N(C2CCC(=O)NC2=O)C3)cc1Cl (centres unmarked) [Compound 8] | A | F (F represents degradation at 0.3 μM (>90%)) | B (B represents trace degradation at 30 μM (below 20%)) | A | B (B represents trace degradation at 30 μM (below 20%)) |
